Reference: PubChem BioAssay AID248 (DTP/NCI, 2004)
Several values for one entry are separate records, joined by “and”; a condition that tells them apart may be missing. Identical values can stand only once. Toxic doses and inconclusive results are not listed. Cut-off read from the data, not from the text of the source: active = T/C of 150% or more; inactive = T/C below 125%.

Tested on: L1210 leukemia ip in BDF1 mice, survival T/C
Assay: NCI In Vivo Anticancer Drug Screen. Data for tumor model L1210 Leukemia (intraperitoneal) in B6D2F1 (BDF1) mice
Settings: endpoint: mean survival time, higher = longer survival
How it was run: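 Antitumor effect is assessed in tumor-bearing animals. Survival in the compound arm is compared with a vehicle-dosed control arm and expressed as their quotient.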

[1] = dose: 100.0 mg/kg/injection, schedule: Q04DX003 (ip), vehicle: saline with Tween-80
[2] = dose: 200.0 mg/kg/injection, schedule: Q04DX003 (ip), vehicle: saline with Tween-80
[3] = dose: 400.0 mg/kg/injection, schedule: Q04DX003 (ip), vehicle: saline with Tween-80
[4] = dose: 50.0 mg/kg/injection, schedule: Q01DX009 (ip), vehicle: Klucel (hydroxypropylcellulose) (HPC)
[5] = dose: 100.0 mg/kg/injection, schedule: Q01DX009 (ip), vehicle: Klucel (hydroxypropylcellulose) (HPC)
[6] = dose: 200.0 mg/kg/injection, schedule: Q01DX009 (ip), vehicle: Klucel (hydroxypropylcellulose) (HPC)
[7] = dose: 400.0 mg/kg/injection, schedule: Q01DX009 (ip), vehicle: Klucel (hydroxypropylcellulose) (HPC)
[8] = dose: 100.0 mg/kg/injection, schedule: Q04DX003 (ip), vehicle: Klucel (hydroxypropylcellulose) (HPC)
[9] = dose: 100.0 mg/kg/injection, schedule: Q01DX001 (ip), vehicle: Klucel (hydroxypropylcellulose) (HPC)
[10] = dose: 200.0 mg/kg/injection, schedule: Q01DX001 (ip), vehicle: Klucel (hydroxypropylcellulose) (HPC)
[11] = dose: 400.0 mg/kg/injection, schedule: Q01DX001 (ip), vehicle: Klucel (hydroxypropylcellulose) (HPC)
[12] = dose: 50.0 mg/kg/injection, schedule: Q04DX003 (ip), vehicle: saline with Tween-80

Measured: T/C

O=C1OC(OC(=O)c2ccccc2)C(Nc2ccccc2)=C1Br (stereo unspecified)
inactive: [1] 91 % of control | [2] 87 % of control | [3] 94 % of control

CC(=O)Nc1ccc(S(=O)(=O)c2ccc(NC(C)=O)cc2)cc1
inactive: [4] 103 % of control | [5] 93 % of control | [6] 97 % of control

COc1ccc(CC(N)C(=O)OC(C)C)cc1N(CCCl)CCCl (stereo unspecified)
inactive: dose: 1.5 mg/kg/injection, schedule: Q01DX001 (ip), vehicle: saline 108 % of control | dose: 3.0 mg/kg/injection, schedule: Q01DX001 (ip), vehicle: saline 113 % of control | dose: 6.0 mg/kg/injection, schedule: Q01DX001 (ip), vehicle: saline 97 % of control

CC([NH-])C(C)[NH-].[Cl][Pd][Cl] (stereo unspecified)
inactive: dose: 12.5 mg/kg/injection, schedule: Q04DX002 (ip), vehicle: Klucel (hydroxypropylcellulose) (HPC) 97 % of control | dose: 25.0 mg/kg/injection, schedule: Q04DX002 (ip), vehicle: Klucel (hydroxypropylcellulose) (HPC) 97 % of control | dose: 50.0 mg/kg/injection, schedule: Q04DX002 (ip), vehicle: Klucel (hydroxypropylcellulose) (HPC) 93 % of control | dose: 50.0 mg/kg/injection, schedule: Q04DX002 (ip), vehicle: saline with Tween-80 93 % of control | dose: 100.0 mg/kg/injection, schedule: Q04DX002 (ip), vehicle: saline with Tween-80 90 % of control | dose: 200.0 mg/kg/injection, schedule: Q04DX002 (ip), vehicle: saline with Tween-80 97 % of control

Cc1ccc(S(=O)(=O)N(C)c2cc(Cl)c(I)c(Cl)c2)cc1
inactive: [5] 98 % of control | [6] 94 % of control | [7] 96 % of control

O=C(O)CCC1C2CC(C1C(=O)O)C1C3CCC(C3)C21 (stereo unspecified)
inactive: [8] 100 % of control | dose: 200.0 mg/kg/injection, schedule: Q04DX003 (ip), vehicle: Klucel (hydroxypropylcellulose) (HPC) 95 % of control | dose: 400.0 mg/kg/injection, schedule: Q04DX003 (ip), vehicle: Klucel (hydroxypropylcellulose) (HPC) 95 % of control

CCOC(=O)C1OC1C1c2cccc3cccc(c23)C1C1OC1C(=O)OCC (stereo unspecified)
inactive: dose: 100.0 mg/kg/injection, schedule: Q01DX001 (ip), vehicle: saline 107 % of control | dose: 200.0 mg/kg/injection, schedule: Q01DX001 (ip), vehicle: saline 94 % of control | dose: 400.0 mg/kg/injection, schedule: Q01DX001 (ip), vehicle: saline 102 % of control

C#CCN(CC#C)C(C)=O
inactive: dose: 100.0 mg/kg/injection, schedule: Q04DX002 (ip), vehicle: saline 91 % of control | dose: 200.0 mg/kg/injection, schedule: Q04DX002 (ip), vehicle: saline 94 % of control

NOCc1cccc2cccnc12
inactive: dose: 25.0 mg/kg/injection, schedule: Q01DX009 (ip), vehicle: saline 100 % of control | dose: 50.0 mg/kg/injection, schedule: Q01DX009 (ip), vehicle: saline 100 % of control | dose: 100.0 mg/kg/injection, schedule: Q01DX009 (ip), vehicle: saline 97 % of control | dose: 100.0 mg/kg/injection, schedule: Q04DX003 (ip), vehicle: saline 89 % of control | dose: 200.0 mg/kg/injection, schedule: Q04DX003 (ip), vehicle: saline 94 % of control | dose: 400.0 mg/kg/injection, schedule: Q04DX003 (ip), vehicle: saline 96 % of control

O=[N+]([O-])c1ccc(/C=C/c2ccc(S(=O)(=O)F)cc2Cl)c(Cl)c1
inactive: [9] 97 % of control | [10] 87 % of control | [11] 93 % of control

C=CCOC(=O)Nc1ccc(S(=O)(=O)CC)cc1
inactive: dose: 100.0 mg/kg/injection, schedule: Q01DX001 (ip), vehicle: carboxymethylcellulose (CMC) 94 % of control | dose: 200.0 mg/kg/injection, schedule: Q01DX001 (ip), vehicle: carboxymethylcellulose (CMC) 102 % of control | dose: 400.0 mg/kg/injection, schedule: Q01DX001 (ip), vehicle: carboxymethylcellulose (CMC) 91 % of control

O=C1C=C(O)c2ccccc2C1=O
inactive: dose: 10.0 mg/kg/injection, schedule: Q01DX Z (ip), vehicle: other 98 % of control | dose: 12.5 mg/kg/injection, schedule: Q04DX003 (ip), vehicle: saline with Tween-80 98 % of control | dose: 20.0 mg/kg/injection, schedule: Q01DX Z (ip), vehicle: other 88 % of control | dose: 25.0 mg/kg/injection, schedule: Q04DX003 (ip), vehicle: saline with Tween-80 106 % of control | dose: 30.0 mg/kg/injection, schedule: Q01DX Z (ip), vehicle: other 90 % of control | dose: 31.2 mg/kg/injection, schedule: Q01DX Z (ip), vehicle: other 97 % of control | dose: 40.0 mg/kg/injection, schedule: Q01DX Z (ip), vehicle: other 90 % of control | [12] 92 % of control

CC/C(=N/OC(=O)NC)c1ccccc1
inactive: dose: 44.0 mg/kg/injection, schedule: Q01DX001 (ip), vehicle: other 94 % of control and 106 % of control | dose: 67.0 mg/kg/injection, schedule: Q01DX001 (ip), vehicle: other 93 % of control and 110 % of control | dose: 100.0 mg/kg/injection, schedule: Q01DX001 (ip), vehicle: other 102 % of control and 110 % of control | dose: 150.0 mg/kg/injection, schedule: Q01DX001 (ip), vehicle: other 96 % of control and 108 % of control

O=C(CCl)N1CCN(C(=O)CCl)CC1
inactive: dose: 10.0 mg/kg/injection, schedule: Q01DX009 (ip), vehicle: Klucel (hydroxypropylcellulose) (HPC) 110 % of control | dose: 20.0 mg/kg/injection, schedule: Q01DX009 (ip), vehicle: Klucel (hydroxypropylcellulose) (HPC) 101 % of control | dose: 20.0 mg/kg/injection, schedule: Q04DX003 (ip), vehicle: Klucel (hydroxypropylcellulose) (HPC) 104 % of control | dose: 40.0 mg/kg/injection, schedule: Q04DX003 (ip), vehicle: Klucel (hydroxypropylcellulose) (HPC) 106 % of control

COc1cc(OC)c(NC(=O)C2CC2)cc1Cl
inactive: [5] 110 % of control | [6] 104 % of control | [7] 110 % of control

Cc1ccc(COC(=O)c2cccnc2)cc1
inactive: [9] 103 % of control | [10] 100 % of control | [11] 103 % of control

BrCc1ccc(CBr)c(Br)c1
inactive: dose: 25.0 mg/kg/injection, schedule: Q01DX009 (ip), vehicle: Klucel (hydroxypropylcellulose) (HPC) 108 % of control | [4] 98 % of control | dose: 50.0 mg/kg/injection, schedule: Q04DX003 (ip), vehicle: Klucel (hydroxypropylcellulose) (HPC) 104 % of control | [8] 95 % of control

CN(C)N=Nc1ccc(C(F)(F)F)cc1
inactive: dose: 50.0 mg/kg/injection, schedule: Q01DX001 (ip), vehicle: saline with Tween-80 97 % of control | dose: 50.0 mg/kg/injection, schedule: Q01DX009 (ip), vehicle: saline with Tween-80 94 % of control | [12] 98 % of control | dose: 100.0 mg/kg/injection, schedule: Q01DX001 (ip), vehicle: saline with Tween-80 103 % of control | dose: 100.0 mg/kg/injection, schedule: Q01DX009 (ip), vehicle: saline with Tween-80 94 % of control | [1] 98 % of control | dose: 200.0 mg/kg/injection, schedule: Q01DX001 (ip), vehicle: saline with Tween-80 105 % of control | dose: 200.0 mg/kg/injection, schedule: Q01DX009 (ip), vehicle: saline with Tween-80 97 % of control | [2] 101 % of control | dose: 400.0 mg/kg/injection, schedule: Q01DX001 (ip), vehicle: saline with Tween-80 101 % of control | dose: 400.0 mg/kg/injection, schedule: Q01DX009 (ip), vehicle: saline with Tween-80 98 % of control | [3] 98 % of control
